Source: PMC9381536, “Non-apoptotic cell death induction via sapogenin based supramolecular particles” (Scientific Reports, 2022)

Key:
[1] = tested on: HCC1937 cells; experiment: Endocytosis/vesicular trafficking inhibitors against AG-08-mediated cell death; format: cell-based, Human; details: 1 h pre-treatment, then 8 µM AG-08 24 h, HCC1937, WST-1
Protocol: Figure 2 AG-08 is related with endosomal pathway. (A) After pre-treatment with 20 µM pitstop II, 0.5 mM methyl-β-cyclodextrin (MβC), 80 µM dynasore, 20 µM cytochalasin d (Cyto D) or 20 µM chlorpromazine (CPZ) for 1 h, HCC1937 cells were treated with 8 µM AG-08 for 24 h. Then cell viability was determined by using WST-1. Reported values were normalized on cells treated with only AG-08. Error bars are the standard deviations (n = 3). p-values were calculated with respect to AG-08 treated cells by two-tailed equal variance Student’s t-test (*p < 0.05, ***p < 0.001, ****p < 0.0001) (B) HCC1937 cells were treated with brefeldin A (Bref A) for 1 h and then treated with 8 µM AG-08 for 24 h. Error bars represent standard deviations (n = 3). p-values were calculated with respect to AG-08-treated cells (*p < 0.05, **p < 0.005, ***p < 0.001). (C) Following AG-08 treatment for 16 h, EEA1 proteins were stained using the anti-EEA1 antibody in HCC1937 cells (scale bar = 25 µm).
Pitstop II (Sigma; SML1169), methyl β cyclodextrin (Cayman; 21,633), chlorpromazine (Cayman; 16,129), dynasore (Cayman, 14,062) and cytochalasin D (Cayman; 11,330) were used as endocytosis inhibitors.

[2] = tested on: HeLa, HCC1937, MCF7, A549 and MRC-5; experiment: cells; format: cell-based, Human
From the text: We next aimed to further characterize the relation between the chemical structure of AG-08 and its capacity of supramolecular assembly formation together with its biological activities by preparing further derivatives. In this regard, 18 analogs (Fig. 4) were synthesized from 20(27)-octanor-cycloastragenol (SCG), cycloastragenol (CG), and astragenol (AG) by the methods shown in the method section. The details and characterization of which are shown in Supplementary Information. The cytotoxic activities of the semi-synthetic analogs were evaluated against four human cancer cell lines, namely HeLa, HCC1937, MCF7, and A549 as well as against MRC-5 as a normal cell line.
(§1) HCC1937 (Human breast cancer line), HeLa (Human […]), A549 (Human lung adenocarcinoma), MRC-5 (Human lung fibroblasts), MCF7 (Human breast cancer cells), A549 (human lung carcinoma) were obtained from American Type Culture Collection and maintained as exponentially growing monolayers by culturing according to the supplier’s instructions. MCF7, HeLa, MRC-5, and A549 cell lines were cultured and routinely passaged in DMEM media containing 10% FBS, while HCC1937 cell lines were propagated in RPMI 1640 containing 10% FBS.
(§2) Following the treatment with compounds or vehicle for 48 h, the 10% WST-1 (Roche, Switzerland) in medium was replaced in each 96 well. After 4 h incubation with WST-1 reagent at 37 °C and 5% CO2, the absorbance was measured using a microplate reader at 440 nm (Varioscan, Thermo Fisher Scientific, US). Graph Pad Prism 5 (San Diego, CA, US.) was used to calculate the IC50, which represents the concentration of compounds that is required for 50% inhibition in comparison to the vehicle-treated controls. The experiments were repeated three times independently.

[3] = tested on: HCC1937; experiment: Cytotoxicity analysis (WST-1); format: cell-based; details: Homo sapiens, HCC1937, 48 h
Protocol: as §1, §2

[4] = tested on: A549; experiment: Cytotoxicity analysis (WST-1); format: cell-based; details: Homo sapiens, A549, 48 h
Protocol: as §1, §2

[5] = tested on: MRC-5; experiment: Cytotoxicity analysis (WST-1); format: cell-based; details: Homo sapiens, MRC5, MRC-5 normal cell line, 48 h
Protocol: as §1, §2

[6] = tested on: HeLa; experiment: Cytotoxicity analysis (WST-1); format: cell-based; details: Homo sapiens, 48 h
Protocol: as §1, §2

[7] = tested on: MCF7; experiment: Cytotoxicity analysis (WST-1); format: cell-based; details: Homo sapiens, MCF7, 48 h
Protocol: as §1, §2

[8] = tested on: HCC1937 cells; experiment: Cytotoxicity of 220 nm filtrates; format: cell-based; details: HCC1937, 24 h
Protocol: Figure 1 AG-08 mediated cytotoxicity relies on the supramolecular structures. (A) Structure of AG-08. (B) The scanning transmission electron micrograph of 16 µM AG-08 in PBS. Figure is a representative image of stained sample with uranyl acetate (5683 × magnification; scale bar 600 nm). (C) After 3 h incubation of Nile red solution with AG-08 or AG, fluorescence intensity of Nile red was measured. (D) AG-08, Staurosporine (Sta) or vehicle samples prepared in the cell condition medium was filtrated by 220 nm filter and HCC1937 cells were exposed to the filtrates. After 24 h, the viability of cells was measured and represented as a percentage of that of the vehicle control. The error bars represent mean value ± s.d. (n = 3). *p < 0.05, **p < 0.005, ***p < 0.001. (E) Tween 20 (1:40,000) was added to the fresh medium before addition of 8 μM AG-08 or vehicle. Then cell medium was replaced with this fresh medium. Cell viability was detected after 24 h incubation. […] TEXT PRINTED IN THE PICTURE: (F) no label printed: Diameter: 153.2±4.6; polydispersity index: 0.218
To verify that the activity of AG-08 arises from its supramolecular structures, freshly prepared AG-08 solutions were filtered using 220 nm-filters to remove AG-08 supramolecular particles from medium, and the filtrates were analyzed for their cytotoxicity. […] Next, Tween-20 was utilized as a non-ionic detergent to block particle formation, and AG-08-mediated cell death was inhibited as expected (Fig. 1E). […]

Molecule	protection of cells against AG-08-mediated cell death [1]	cytotoxic activity (structure-activity statement) [2]	IC50 [3] [µM]	IC50 [4] [µM]	IC50 [5] [µM]	IC50 [6] [µM]	IC50 [7] [µM]	cytotoxicity of filtrate after 220 nm filtration [8]
CN(C)CCCN1c2ccccc2Sc2ccc(Cl)cc21 [chlorpromazine]	failed to rescue cells	–	–	–	–	–	–	–
CN(C)c1cccc2c(S(=O)(=O)OC3CCC4(C)C5=CCC6(C)C(C7(C)CCC(C(C)(C)O)O7)C(O)CC6(C)C5C=CC4C3(C)C)cccc12 (stereo not drawn) [AG-07]	–	loss of activity	38.3	38.2	7.4	34.7	–	–
Cc1ccc(S(=O)(=O)OC2CC3(C)CCC45CC46CCC(OS(=O)(=O)c4ccc(C)cc4)C(C)(C)C6C=CC5C3(C)C2)cc1 (stereo not drawn) [SCG-04]	–	–	> 50	> 50	> 50	> 50	> 50	–
CC1(C)C(O)CCC23CC24CCC2(C)CC(O)CC2(C)C4CC(O)C13 (stereo not drawn) [SCG, 20(27)-octanor-cycloastragenol, reference compound]	–	–	> 50	> 50	> 50	> 50	> 50	–
CC(C)(O)C1CCC(C)(C2C(O)CC3(C)C4C=CC5C(C)(C)C(OS(C)(=O)=O)CCC56CC46CCC23C)O1 (stereo not drawn) [CG-04]	–	the activity was lost	> 50	> 50	> 50	> 50	> 50	–
O=C(N/N=C/c1ccc(O)c(O)c1)c1cc2ccccc2cc1O [dynasore]	failed to rescue cells	–	–	–	–	–	–	–
CC(C)(O)C1CCC(C)(C2C(O)CC3(C)C4C=CC5C(C)(C)C(O)CCC56CC46CCC23C)O1 (stereo not drawn) [CG-02]	–	did not exhibit antiproliferative effect	32.5	21.1	33.4	43.9	21.2	–
C=C1[C@@H](C)[C@H]2[C@H](Cc3ccccc3)NC(=O)[C@]23[C@H](OC(C)=O)/C=C/[C@@](C)(O)C(=O)[C@@H](C)C/C=C/[C@H]3[C@@H]1O [cytochalasin D]	failed to rescue cells	–	–	–	–	–	–	–
Cc1ccc(S(=O)(=O)OC2CC3(C)CCC45CC46CCC(O)C(C)(C)C6C(O)CC5C3(C)C2)cc1 (stereo not drawn) [SCG-01]	–	–	> 50	> 50	> 50	> 50	> 50	–
CC(C)(O)C1CCC(C)(C2C(O)CC3(C)C4CC(O)C5C(C)(C)C(O)CCC56CC46CCC23C)O1 (stereo not drawn) [CG, cycloastragenol, reference compound]	–	–	> 50	> 50	> 50	> 50	> 50	–
CC1(C)C(O)CCC23CC24CCC2(C)CC(O)CC2(C)C4C=CC13 (stereo not drawn) [SCG-02]	–	–	> 50	> 50	> 50	> 50	> 50	–
CC(C)(O)C1CCC(C)(C2C(O)CC3(C)C4CC(=O)C5C(C)(C)C(O)CCC56CC46CCC23C)O1 (stereo not drawn) [CG-01]	–	–	> 30	> 30	> 30	> 30	> 30	–
C[C@H]1CCC/C=C/[C@@H]2C[C@H](O)C[C@H]2[C@H](O)/C=C/C(=O)O1 [Brefeldin A]	reduced AG-08 dependent cell death	–	–	–	–	–	–	–
CC(C)(O)C1CCC(C)(C2C(O)CC3(C)C4C=CC5C(C)(CCC(OS(C)(=O)=O)C5(C)C)C4=CCC23C)O1 (stereo not drawn) [AG-04]	–	the activity was lost	> 50	27.5	29.6	> 50	22.1	–
methyl β-cyclodextrin	effectively protected cells	–	–	–	–	–	–	–
Cc1ccc(S(=O)(=O)OC2CC3C4(C)CC(O)CC4(C)CCC34CC43CC=CC(C)(C)C23)cc1 (stereo not drawn) [SCG-03]	–	–	> 50	> 50	> 50	> 50	> 50	–
CC(C)(O)C1CCC(C)(C2C(O)CC3(C)C4C=CC5C(C)(CCC(O)C5(C)C)C4=CCC23C)O1 (stereo not drawn) [AG-03]	–	–	20.3	25.5	24.4	33.4	21.8	–
CC1(C)C(O)CCC23CC24CCC2(C)CC(OS(C)(=O)=O)CC2(C)C4CC(O)C13 (stereo not drawn) [SCG-07]	–	–	> 50	> 50	> 50	> 50	> 50	–
Cc1ccc(S(=O)(=O)OC2CC3(C)CCC45CC46CCC(O)C(C)(C)C6C=CC5C3(C)C2)cc1 (stereo not drawn) [SCG-05]	–	–	> 50	> 50	> 50	> 50	> 50	–
CC1(C)C(OS(C)(=O)=O)CCC23CC24CCC2(C)CC(OS(C)(=O)=O)CC2(C)C4C=CC13 (stereo not drawn) [SCG-06]	–	–	> 50	> 50	> 50	> 50	> 50	–
CC(C)(O)C1CCC(C)(C2C(O)CC3(C)C4CC(O)C5C(C)(C)C=CCC5(C)C4=CCC23C)O1 (stereo not drawn) [AG-02]	–	did not exhibit antiproliferative effect	46.1	30.5	39.9	42.6	32.1	–
O=C1N=C(NS(=O)(=O)c2cccc3ccccc23)SC1=Cc1ccc(Br)cc1 [pitstop II]	effectively protected cells	–	–	–	–	–	–	–
CN[C@@H]1C[C@H]2O[C@@](C)([C@@H]1OC)n1c3ccccc3c3c4c(c5c6ccccc6n2c5c31)C(=O)NC4 [staurosporine, reference compound]	–	–	–	–	–	–	–	still effectively caused cell death
CC(C)(O)C1CCC(C)(C2C(O)CC3(C)C4CC(=O)C5C(C)(CCC(O)C5(C)C)C4=CCC23C)O1 (stereo not drawn) [AG-01]	–	–	> 30	> 30	> 30	> 30	> 30	–
